The values below come from patent US20250263408A1 (Uniquest Pty Ltd, priority 2022, published 2025).

As usually defined, the EC50 is the concentration needed to bring the measured effect to its halfway point.

Assay [1] concerns Ba/F3-WT (wild type) cells. The assay is described as follows: Ba/F3 Proliferation Assay, Ba/F3-WT (wild type) cells with mIL-3 (Resazurin). The class given is cell-based. To be noted: Mus musculus, BaF3, 48 h, Ba/F3-WT cells +mIL-3, 48-hour incubation. For orientation: Alamar Blue is a resazurin reagent that responds to reducing activity.
The next assay has as its target T1, Ba/F3-Syk cells (Homo sapiens, UniProt P43405).
T1 construct: fused on or other part: Possible but unprinted fusion partner: TEL (ETV6), the usual partner for Ba/F3 lines transformed by Syk; Nothing on a partner is printed
Put plainly: Ba/F3 Proliferation Assay, Ba/F3-Syk cells (Resazurin). To be noted: 48-hour incubation. The class given is cell-based.

On to `CC[C@@]1(COc2nc(-c3cnn(C(C)(C)C)c3)cc3ncccc23)CNCCO1` [Compound 10.14, 7-(1-tert-butyl-1H-pyrazol-4-yl)-5-{[(2S)-2-ethylmorpholin-2-yl]methoxy}-1,6-naphthyridine], for which the EC50 in assay [1] turned out to be 2.55 µM; at Ba/F3-Syk cells, 0.281 µM.

For the compound `CC[C@@]1(COc2nc(-c3cnn(C(C)C)c3)cc3ncccc23)CNCCO1` [Compound 10.16, 5-{[(2S)-2-ethylmorpholin-2-yl]methoxy}-7-[1-(propan-2-yl)-1H-pyrazol-4-yl]-1,6-naphthyridine], the EC50 was found to be 1.21 µM in assay [1] and 0.259 µM on Ba/F3-Syk cells.

In the case of `C1=C(c2cc(OC[C@@H]3CNCCO3)c3cccnc3c2)CCC1` [Compound 11.1, 7-(cyclopent-1-en-1-yl)-5-{[(2S)-morpholin-2-yl]methoxy}quinoline], the EC50 in assay [1] was above 10 µM; on Ba/F3-Syk cells, 1.36 µM.

Turning to `CC1(C)CNC[C@@H](COc2cc(-c3cnn4c3CCCC4)cc3ncccc23)O1` [Compound 11.2, 5-{[(2S)-6,6-dimethylmorpholin-2-yl]methoxy}-7-{4H,5H,6H,7H-pyrazolo[1,5-a]pyridin-3-yl}quinoline], the EC50 came to 8.46 µM in assay [1] and 0.637 µM at Ba/F3-Syk cells.

Turning to `CC(C)n1cc(-c2cc(O[C@H](C)[C@@H]3CNCC(C)(C)O3)c3cccnc3c2)cn1` [Compound 11.3, 5-[(1R)-1-[(2S)-6,6-dimethylmorpholin-2-yl]ethoxy]-7-[1-(propan-2-yl)-1H-pyrazol-4-yl]quinoline], the concentration for a half-maximal effect (EC50) in assay [1] was found to be 0.557 µM; at Ba/F3-Syk cells, 0.0375 µM.

Regarding `C[C@@H](Oc1cc(-c2cnn(C)c2)cc2ncccc12)[C@@H]1CNCC(C)(C)O1` [Compound 11.4, 5-[(1R)-1-[(2S)-6,6-dimethylmorpholin-2-yl]ethoxy]-7-(1-methyl-1H-pyrazol-4-yl)quinoline], the EC50 in assay [1] was 0.74 µM; on Ba/F3-Syk cells, 0.0697 µM.

As to `C[C@@H](Oc1cc(-c2ccn(C)c2)cc2ncccc12)[C@@H]1CNCC(C)(C)O1` [Compound 11.5, 5-[(1R)-1-[(2S)-6,6-dimethylmorpholin-2-yl]ethoxy]-7-(1-methyl-1H-pyrrol-3-yl)quinoline], the EC50 came out at 1.85 µM in assay [1] and 0.0906 µM on Ba/F3-Syk cells.

For `Cn1ccc(-c2cc(OC[C@@H]3CNCC4(CCC4)O3)c3cccnc3c2)c1` [Compound 11.6, 7-(1-methyl-1H-pyrrol-3-yl)-5-{[(6S)-5-oxa-8-azaspiro[3.5]nonan-6-yl]methoxy}quinoline], the 50% effective concentration (EC50) was determined as 1.79 µM in assay [1] and 0.0334 µM at Ba/F3-Syk cells.

`Cn1cc(-c2cc(OC[C@@H]3CNCC4(CCC4)O3)c3cccnc3c2)cn1` [Compound 11.7, 7-(1-methyl-1H-pyrazol-4-yl)-5-{[(6S)-5-oxa-8-azaspiro[3.5]nonan-6-yl]methoxy}quinoline]: the EC50 in assay [1] was 1.07 µM; on Ba/F3-Syk cells, 0.0463 µM.

`CC(C)(C)n1cc(-c2cc(OC[C@@H]3CNCC4(CCC4)O3)c3cccnc3c2)cn1` [Compound 11.9, 7-(1-tert-butyl-1H-pyrazol-4-yl)-5-{[(6S)-5-oxa-8-azaspiro[3.5]nonan-6-yl]methoxy}quinoline]: the EC50 in assay [1] turned out to be 1.58 µM; on Ba/F3-Syk cells, 0.01 µM.

With `C[C@@H](Oc1cc(-c2ccn(C)c2)cc2ncccc12)[C@@H]1CNCCO1` [Compound 11.10, 7-(1-methyl-1H-pyrrol-3-yl)-5-[(1R)-1-[(2S)-morpholin-2-yl]ethoxy]quinoline], the EC50 in assay [1] came out at 1.7 µM; at Ba/F3-Syk cells, 0.121 µM.

In the case of `Cn1cc(-c2cc(OC[C@@H]3CNCC4(CC4)O3)c3nccnc3c2)cn1` [Compound 12.1, 7-(1-methyl-1H-pyrazol-4-yl)-5-{[(5S)-4-oxa-7-azaspiro[2.5]octan-5-yl]methoxy}quinoxaline], the EC50 was above 10 µM in assay [1] and 0.214 µM at Ba/F3-Syk cells.

On to `CC(C)n1cc(-c2cc(OC[C@@H]3CNCC4(CC4)O3)c3nccnc3c2)cn1` [Compound 12.2, 5-{[(5S)-4-oxa-7-azaspiro[2.5]octan-5-yl]methoxy}-7-[1-(propan-2-yl)-1H-pyrazol-4-yl]quinoxaline], for which the EC50 in assay [1] came out at 1.62 µM; at Ba/F3-Syk cells, 0.0291 µM.

Turning to `CC(C)(C)n1cc(-c2cc(OC[C@@H]3CNCC4(CC4)O3)c3nccnc3c2)cn1` [Compound 12.3, 7-(1-tert-butyl-1H-pyrazol-4-yl)-5-{[(5S)-4-oxa-7-azaspiro[2.5]octan-5-yl]methoxy}quinoxaline], the half-maximal effective concentration (EC50) in assay [1] amounted to 1.3 µM; at Ba/F3-Syk cells, 0.0273 µM.

For the compound `Cn1ccc(-c2cc(OC[C@@H]3CNCC4(CC4)O3)c3nccnc3c2)c1` [Compound 12.4, 7-(1-methyl-1H-pyrrol-3-yl)-5-{[(5S)-4-oxa-7-azaspiro[2.5]octan-5-yl]methoxy}quinoxaline], the figures for the EC50 (in assay [1]; on Ba/F3-Syk cells) were 3.07 µM and 0.0275 µM, respectively.

For `C[C@@H]1CNC[C@@H](COc2cc(-c3cnn(C)c3)cc3nccnc23)O1` [Compound 12.5, 7-(1-methyl-1H-pyrazol-4-yl)-5-{[(2S,6R)-6-methylmorpholin-2-yl]methoxy}quinoxaline], the EC50 in assay [1] stood at 1.3 µM; on Ba/F3-Syk cells, 0.0509 µM.

As for `CC(C)n1cc(-c2cc(OC[C@@H]3CNC[C@@H](C)O3)c3nccnc3c2)cn1` [Compound 12.6, 5-{[(2S,6R)-6-methylmorpholin-2-yl]methoxy}-7-[1-(propan-2-yl)-1H-pyrazol-4-yl]quinoxaline], the figures for the EC50 (in assay [1]; at Ba/F3-Syk cells) were 0.478 µM and 0.0099 µM, respectively.

For the compound `C[C@@H]1CNC[C@@H](COc2cc(-c3cnn(C(C)(C)C)c3)cc3nccnc23)O1` [Compound 12.7, 7-(1-tert-butyl-1H-pyrazol-4-yl)-5-{[(2S,6R)-6-methylmorpholin-2-yl]methoxy}quinoxaline], the EC50 was found to be 0.989 µM in assay [1] and 0.0092 µM at Ba/F3-Syk cells.

Regarding `c1cnc2cc(-c3ccns3)nc(OC[C@@H]3CNCCO3)c2c1` [Compound 13.1, 5-{[(2S)-morpholin-2-yl]methoxy}-7-(1,2-thiazol-5-yl)-1,6-naphthyridine], the EC50 worked out at 6.36 µM in assay [1] and 0.586 µM on Ba/F3-Syk cells.

For the compound `Cn1ccc(-c2cc3ncccc3c(O[C@@H]([C@@H]3CNCCO3)C(F)(F)F)n2)c1` [Compound 13.3, 7-(1-methyl-1H-pyrrol-3-yl)-5-[(1S)-2,2,2-trifluoro-1-[(2S)-morpholin-2-yl]ethoxy]-1,6-naphthyridine], the EC50 in assay [1] is above 10 µM; at Ba/F3-Syk cells it was 1.21 µM.

`CC1(C)CCO[C@H](COc2nc(-c3cnn(C(C)(C)C)c3)cc3ncccc23)CN1` [Compound 13.4, 7-(1-tert-butyl-1H-pyrazol-4-yl)-5-{[(2S)-5,5-dimethyl-1,4-oxazepan-2-yl]methoxy}-1,6-naphthyridine]: the EC50 in assay [1] came out at 5.75 µM; on Ba/F3-Syk cells it was 0.214 µM.

As for `C[C@@H]1NCCO[C@@H]1COc1nc(-c2ccn(C)c2)cc2ncccc12` [Compound 13.5, 7-(1-methyl-1H-pyrrol-3-yl)-5-{[(2S,3S)-3-methylmorpholin-2-yl]methoxy}-1,6-naphthyridine], the values for the EC50 (in assay [1]; on Ba/F3-Syk cells) were 6.31 µM and 0.0517 µM, respectively.

On to `C[C@@H]1NCCO[C@@H]1COc1nc(-c2cnn(C(C)(C)C)c2)cc2ncccc12` [Compound 13.6, 7-(1-tert-butyl-1H-pyrazol-4-yl)-5-{[(2S,3S)-3-methylmorpholin-2-yl]methoxy}-1,6-naphthyridine], for which the EC50 is 5.56 µM in assay [1] and 0.0362 µM at Ba/F3-Syk cells.
